Test results: patent US11883526B2 (priority 2019, dated 2024)

How the values were obtained:
[1] = single dose study, 72 mg intranasal
Experimental: This study includes a single dose and 14-day repeated dose neurotoxicity studies with intranasally administered esketamine in female rats 12 to 14 weeks of age. These studies were conducted to investigate whether single or repeated intranasal administrations of esketamine induced neurodegenerative changes in the rat brain. The study results were used to estimate an esketamine exposure-based safety margin compared with the maximum dose of esketamine administered intranasally to depressed adult patients in clinical trials.
The vehicle- and the 36 and 54 mg-dosed groups consisted of 24 animals per group, while the 72 mg-dosed and positive control groups involved 30 animals per group. Four satellite animals were added to the esketamine HCl-dosed groups of main study animals for toxicokinetic (TK) purposes. In these animals the plasma exposure to esketamine was measured on the day of dosing at various time points up to and including 24 hours after the first instillation.

[2] = test system: subjects with MDD at imminent risk for suicide; test: MADRS total score, sustained response ([…]2001); assay type: in vivo, human; details: 84 mg; for MADRS total score change from baseline, Diff. of LS Means (minus Placebo): ANCOVA LOCF
Text: Primary efficacy variable/Primary Time point: Change from baseline (Day 1, predose) to Day 1, 4-hours postdose in MADRS total score. The MADRS consists of 10 items that cover all of the core depressive symptoms, with each item scoring from 0 (item is not present or is normal) to 6 (severe or continuous presence of the symptom). A higher score represents a more severe condition.
The primary efficacy endpoint is the change in MADRS total score from baseline to Day 1: 4-hours postdose. MADRS total scores range from 0 to 60. […] As this is a phase 2a proof-of-concept study, statistical significance is based on a two-sided alpha level of 0.20. All p-values presented in this document are two-sided.
Sustained response is defined as at least 50% reduction from baseline in MADRS total score with onset on Day 1: 4 hours postdose that is maintained through the end of the double-blind phase (Day 25). Four subjects in the esketamine 84 mg group and 2 subjects in the placebo group had sustained response throughout the double-blind phase.

[3] = test system: patients with treatment-resistant depression (TRD); test: GAD-7 (Example 7); assay type: in vivo, human
Experimental: Overall illness severity was assessed on the Clinical Global Impression of Severity (CGI-S) scale (Guy, “ECDEU Assessment Manual for Psychopharmacology—Revised (DHEW Publ No ADM 76-338)”, Rockville, Md.: U.S. Department of Health, Education, and Welfare, Public Health Service, Alcohol, Drug Abuse, and Mental Health Administration, NIMH Psychopharmacology Research Branch, Division of Extramural Research Programs; 1976, pp 218-222). Participants assessed their severity of anxiety on the Generalized Anxiety Disorder 7-item (GADS-7) Scale (See, Tables 157 and 158). See, Spitzer, “A brief measure for assessing generalized anxiety disorder—the GAD-7”, Arch. Intern. Med., 2006, 166(10):1092-1097.

Compound: CN[C@]1(c2ccccc2Cl)CCCCC1=O [esketamine, (S)-2-(2-chlorophenyl)-2-(methylamino)cyclohexanone]
- AUC-based safety margin compared with the maximum 84 mg clinical dose [1]: ~86 fold
- Cmax-based safety margin compared with the maximum 84 mg clinical dose [1]: approximately 60 fold
- subjects with sustained response throughout the double-blind phase ([2]; ≥50% MADRS reduction from Day 1 4 h through Day 25): Four
- MADRS total score change from baseline, Diff. of LS Means (minus Placebo) ([2]; Day 1(DB): 4 H, ITT): −5.3
- MADRS total score change from baseline, Diff. of LS Means (minus Placebo) ([2]; Day 2(DB), ITT): −7.2
- MADRS total score change from baseline, Diff. of LS Means (minus Placebo) ([2]; End Point(DB), ITT): −4.5
- Day 25 sustained response (MADRS) No: no. of subjects ([2]; ITT): 30
- Withdrawn from double-blind phase: Lack of Efficacy, percent of subjects ([2]; all randomized analysis set): (2.8%)
- Withdrawn from double-blind phase: Lack of Efficacy, number of subjects ([2]; all randomized analysis set, N = 36): 1
- Day 25 sustained response (MADRS) Yes: no. of subjects ([2]; at least 50 percent reduction from Day 1 through Day 25, ITT): 4
- GAD-7 change, LS mean difference from placebo (SE) ([3]; Period 1, 28 mg): −0.21 (1.461)
- GAD-7 change, LS mean difference from placebo (SE) ([3]; Period 1, 56 mg): −1.40 (1.478)
- GAD-7 change, LS mean difference from placebo (SE) ([3]; Period 2, 56 mg): 0.60 (1.033)
